Assay results published in article PMC12264794, “Homoleptic complexes of titanium(IV) fused with O^N^O Schiff base derivatives: design, BSA–DNA interaction, molecular docking, DFT and cytotoxicity” (RSC Advances, 2025).
Where two headings read alike, the source gives them in different places.

Legend:
[1] = Stability studies by UV-vis in DMSO:H2O and aqueous GSH medium; assay type: physicochemical; conditions: DMSO : H2O (1 : 9, v/v) and aqueous GSH medium, over 72 hours
Experimental: Stability studies were carried out using DMSO : H2O medium (1 : 9, v/v) and aqueous GSH medium to perform stability tests on the freshly synthesized Ti(IV) complexes over 72 hours.

CT-DNA = assay: Competitive EtBr displacement fluorescence quenching on CT-DNA; assay type: binding, calf; conditions: for KSV, Stern–Volmer quenching constant: EB-CT-DNA adduct
Experimental: Using fluorescence spectroscopy, the competitive binding relationship between metal complexes and CT-DNA bound to ethidium bromide was investigated. EtBr and CT-DNA solutions at a 5 mM concentration were made in PBS buffer (pH 7.4) for the fluorescence studies. After that, the reference solutions were allowed to settle at room temperature for an hour and the CT-DNA reference solution (200 μM) was coupled to ethidium bromide (50 μM) and allowed to rest for the specified period. The excitation and emission wavelengths were set at 460 nm and incremental addition of Ti(IV) complex concentrations ranging from 0 to 80 μM were used to titrate constant concentrations of EtBr-CT-DNA solution.[43,44]
A known volume of 200 μM CT-DNA (5 Mm) and 50 μM EB was mixed with an aqueous PBS buffer to make an EB-CT-DNA solution. The mixture was then kept at room temperature for 20 minutes before the complexes were titrated. Analysis of the competitive interaction mechanisms of the complexes towards CT-DNA involved the incremental addition of Ti(IV) complexes to the mixture of EB-CT-DNA. The modification in the emission spectral profile of EB-DNA indicated the impact of the addition of the complexes and there was a noticeable decrease in inflorescence intensity when the Ti(IV) complexes (0–100 μM) were added to the EB-CT-DNA system (Fig. 4(a), ESI Fig. S63 ^† and Table 2).
The linear plot of I0/I versus [complex] […] KSV is the Stern–Volmer quenching constant, and [Q] is the quencher concentration.6 Kapp × [Complex]50 = KEtBr × [EtBr]For the Ti(IV) complexes, Kapp (the apparent binding constant) was calculated using eqn (6), where KEtBr (1.0 × 10^7 M^−1) is the DNA binding constant of EB, [EtBr] is the concentration of EB = 10 μM and [Complex]50 denotes the complex concentration at which the fluorescence intensity of the DNA-EB adduct is reduced to 50%. […] Furthermore, the number of binding sites (n) and the equilibrium binding constant K were ascertained by using the Scatchard eqn (7):7 Log(I0 − I/I) = log K + n log[Q]where I0 is the fluorescence intensity of CT-DNA + EtBr in the absence of complex and I points to the fluorescence intensities of CT-DNA in the presence of a complex of concentration [Q]. The significant quenching in fluorescence intensity of all metal complexes (Table 2), the Stern–Volmer (ESI Fig. S64 ^†) and Scatchard plots (Fig. 4(c), ESI Fig. S65 ^† and Table 2), and other computations performed, supported the strong groove-binding interaction mode with CT-DNA.

HeLa cells [2] = assay: Flow cytometry cell cycle analysis by PI staining; assay type: cell-based, human; conditions: 48 h, complexes at IC50, cis-platin 5 μM
Experimental: A flow cytometer was also used to do the apoptotic assessment. HeLa cells (5 × 10^5) were seeded onto 6-well plates using Dulbecco's Modified Eagle Medium paper (DMEM) with 10% FBS. The plates were incubated overnight at 37 °C with 95% air and 5% CO2. […] Following trypsinization, the cells were collected, cleaned with PBS, and fixed for 24 hours at 2–6 °C in ice-cold 70% ethanol. Centrifugation was used to remove the ethanol, and cold PBS was used twice to wash the cell pellets. Later the cells were stained with propidium iodide (PI, 1 mg mL^−1) and incubated for 30 min. Flow cytometric analysis was performed using a FACS scanner and the Becton Dickinson cell search program at 595 nm and the distribution of cells in various cell cycle phases was determined.[69,70]
Through cell cycle analysis, the mechanism of cancer cell death caused by the complexes was evaluated. Anticancer drugs promote growth-inhibitory action in cancer cells by a variety of mechanisms, one of which is dysfunction in the regulation of the cell cycle.[32] For example, cis-platin inhibits DNA transcription in cells by stopping the cell cycle in the S and G2/M phases. PI staining and flow cytometry were used to examine the ability of the complexes to modify the cell cycle (Fig. 19).

HeLa cells [3] = assay: AO–EB staining assay; assay type: cell-based, human; conditions: IC50 concentration, 48 hours
Experimental: A dual AO–EB staining fluorescent labelling technique was performed utilizing the Gohel et al. protocol, HeLa cells were seeded in 6-well plates at a density of 5 × 10^4. They were grown in a humidified CO2 incubator at 37 °C until they reached 70–80% confluency. […] The media were removed from each well, and the cells underwent two gentle room-temperature PBS rinses. Following that, the cells were combined with 100 μL of ethidium bromide and acridine orange dye and incubated separately for 15 minutes at 37 °C after staining separately, and the plates were observed and images were captured with an Olympus Confocal Laser Scanning Microscope—Fluoview Fv3000.[67,68]
The most important requirement in the creation of novel anticancer drugs is to determine the apoplastic induction caused by the drug concerned. AO–EB assay staining aids in the differentiation of necrotic, apoptotic, and living cells. By means of AO–EB staining, the morphological alterations caused by Ti-1-IS to Ti-6-IBr in HeLa cells were investigated. AO can penetrate intact cell membranes and dye them green; this distinction is caused in early apoptotic as well as normal cells. In contrast, EB can only enter cells that have lost their ability to form membranes, leaving an orange stain behind, identifying them as necrotic or late apoptotic cells.

[4] = from eqn (6), complex concentration at 50% fluorescence

Compound | Stability [1] | KSV, Stern–Volmer quenching constant (CT-DNA) [M⁻¹] | Kapp, apparent DNA binding constant (CT-DNA; [4]) [M⁻¹] | G0/G1 phase (HeLa cells [2]) [%] | S Phase (HeLa cells [2]) [%] | Sub-G0 phase (HeLa cells [2]) [%] | Apoptosis induction by AO–EB staining (HeLa cells [3]) | KSV, Stern–Volmer quenching constant (CT-DNA; text value) [M⁻¹] | Kapp, apparent DNA binding constant (CT-DNA) [M⁻¹]
[O-]C(=NN=Cc1ccccc1[O-])c1ccncc1.[O-]C(=NN=Cc1ccccc1[O-])c1ccncc1.[Ti+4] [Ti-1-IS] | did not change much | 6000 | 3.03e+06 | – | – | – | – | – | –
[O-]C(=NN=Cc1c([O-])ccc2ccccc12)c1ccncc1.[O-]C(=NN=Cc1c([O-])ccc2ccccc12)c1ccncc1.[Ti+4] [Ti-2-IN] | did not change much | 19000 | 3.56e+06 | – | – | – | – | – | –
COc1cccc(C=NN=C([O-])c2ccncc2)c1[O-].COc1cccc(C=NN=C([O-])c2ccncc2)c1[O-].[Ti+4] [Ti-3-IO] | small degree of hyperchromism | 16000 | 3.4e+06 | 18.32 | 19.41 | 28.48 | apoptosis was triggered | – | –
[O-]C(=NN=Cc1cc(F)ccc1[O-])c1ccncc1.[O-]C(=NN=Cc1cc(F)ccc1[O-])c1ccncc1.[Ti+4] [Ti-4-IF] | small degree of hyperchromism | 14000 | 3.41e+06 | – | – | – | – | – | –
[O-]C(=NN=Cc1cc(Cl)ccc1[O-])c1ccncc1.[O-]C(=NN=Cc1cc(Cl)ccc1[O-])c1ccncc1.[Ti+4] [Ti-5-ICl] | remained constant | 26000 | 3.43e+06 | 7.45 | 16.10 | 14.72 | apoptosis was triggered | 26000 | –
Brc1ccc2c(c1)C=NN=C(c1ccncc1)[O][Ti]1([O]C(c3ccncc3)=NN=Cc3cc(Br)ccc3[O]1)[O]2 (stereo not shown) [Ti-6-IBr] | small degree of hyperchromism | 16000 | 4.24e+06 | – | – | – | – | – | 4.24e+06
